Data taken from patent US9718823B2, “2, 6-Di-nitrogen-containing substituted purine derivative, and preparation method, pharmaceutical composition and use thereof” (Zhejiang Medicine Co., Ltd. Xinchang Pharmaceutical Factory, priority 2013, dated 2017).
Where two headings read alike, the source gives them in different places.

Assays:
Format in all cases: biochemical
[1] = target: T1, PDGFR β enzyme (Homo sapiens, UniProt P09619); assay: Inhibitory activity to PDGFR β enzyme, HTRF kinEASE TK kit; conditions: read-out: Inhibition rate % (PDGFR β)
T1 construct: purchased Invitrogen P3082
T1 sequence (P09619 33-1106): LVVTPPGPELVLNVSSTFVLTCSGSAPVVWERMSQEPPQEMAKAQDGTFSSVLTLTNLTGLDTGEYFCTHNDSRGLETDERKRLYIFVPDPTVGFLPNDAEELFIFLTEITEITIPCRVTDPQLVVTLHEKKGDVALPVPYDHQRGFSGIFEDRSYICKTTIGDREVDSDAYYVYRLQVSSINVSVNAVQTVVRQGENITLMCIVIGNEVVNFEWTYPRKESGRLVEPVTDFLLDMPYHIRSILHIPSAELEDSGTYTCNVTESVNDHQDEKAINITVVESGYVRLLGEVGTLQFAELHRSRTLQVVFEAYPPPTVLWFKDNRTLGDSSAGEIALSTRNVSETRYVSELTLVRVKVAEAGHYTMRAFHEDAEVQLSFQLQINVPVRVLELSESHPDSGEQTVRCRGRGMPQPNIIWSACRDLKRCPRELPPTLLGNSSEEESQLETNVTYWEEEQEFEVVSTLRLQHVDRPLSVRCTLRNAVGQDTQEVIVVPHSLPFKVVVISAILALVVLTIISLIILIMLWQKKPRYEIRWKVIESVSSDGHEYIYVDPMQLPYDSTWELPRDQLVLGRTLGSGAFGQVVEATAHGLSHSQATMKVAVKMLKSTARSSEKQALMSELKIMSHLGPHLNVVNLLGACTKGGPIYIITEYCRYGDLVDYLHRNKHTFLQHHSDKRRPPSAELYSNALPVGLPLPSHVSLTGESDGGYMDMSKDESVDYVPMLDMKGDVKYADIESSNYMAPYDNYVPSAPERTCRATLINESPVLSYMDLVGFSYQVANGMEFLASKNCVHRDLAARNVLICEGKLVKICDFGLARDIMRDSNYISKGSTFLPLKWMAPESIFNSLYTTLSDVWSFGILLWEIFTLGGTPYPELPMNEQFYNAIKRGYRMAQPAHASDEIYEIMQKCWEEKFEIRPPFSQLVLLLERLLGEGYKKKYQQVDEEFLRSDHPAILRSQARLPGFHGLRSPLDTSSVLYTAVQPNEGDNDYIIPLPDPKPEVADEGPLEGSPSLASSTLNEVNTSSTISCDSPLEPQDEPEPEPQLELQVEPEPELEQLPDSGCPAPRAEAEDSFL
Procedure: HTRF kinEASE TK (Cat.62TK0PEC, Cisbio)
PDGFR β enzyme (Cat.P3082, Invitrogen)
1 mL 1×Kinase Buffer includes 200 μL 5×Enzyme buffer, 5 μL 1M MgCl2, 1 μL 1M DTT, 1 μL 1M MnCl2, 20 μL 2500 nM SEB, 773 μL ddH2O.
TK-Substrate and ATP are diluted to 2.5 times of reaction concentration with 1×PDGFR β Kinase Buffer.
5×PDGFR β enzyme working solution is prepared with 1×PDGFR β kinase buffer.
4×Sa-XL665 working solution is prepared with Detection Buffer.
TK-Ab-Cryptate is diluted 100 times with Detection Buffer to use as working solution.

[2] = target: T2, PI3Kδ (Homo sapiens, UniProt O00329); assay: Inhibitory activity to PI3K δ, PI 3-Kinase (human) HTRF Assay kit; conditions: for inhibition at 1 µM: 1 μM (Table 7); for inhibition at 0.4 µM: 0.4 μM (Table 8); for inhibition at 2 µM: 2 μM (Table 8)
T2 construct: purchased Millipore 14-604
T2 sequence (O00329 whole entry): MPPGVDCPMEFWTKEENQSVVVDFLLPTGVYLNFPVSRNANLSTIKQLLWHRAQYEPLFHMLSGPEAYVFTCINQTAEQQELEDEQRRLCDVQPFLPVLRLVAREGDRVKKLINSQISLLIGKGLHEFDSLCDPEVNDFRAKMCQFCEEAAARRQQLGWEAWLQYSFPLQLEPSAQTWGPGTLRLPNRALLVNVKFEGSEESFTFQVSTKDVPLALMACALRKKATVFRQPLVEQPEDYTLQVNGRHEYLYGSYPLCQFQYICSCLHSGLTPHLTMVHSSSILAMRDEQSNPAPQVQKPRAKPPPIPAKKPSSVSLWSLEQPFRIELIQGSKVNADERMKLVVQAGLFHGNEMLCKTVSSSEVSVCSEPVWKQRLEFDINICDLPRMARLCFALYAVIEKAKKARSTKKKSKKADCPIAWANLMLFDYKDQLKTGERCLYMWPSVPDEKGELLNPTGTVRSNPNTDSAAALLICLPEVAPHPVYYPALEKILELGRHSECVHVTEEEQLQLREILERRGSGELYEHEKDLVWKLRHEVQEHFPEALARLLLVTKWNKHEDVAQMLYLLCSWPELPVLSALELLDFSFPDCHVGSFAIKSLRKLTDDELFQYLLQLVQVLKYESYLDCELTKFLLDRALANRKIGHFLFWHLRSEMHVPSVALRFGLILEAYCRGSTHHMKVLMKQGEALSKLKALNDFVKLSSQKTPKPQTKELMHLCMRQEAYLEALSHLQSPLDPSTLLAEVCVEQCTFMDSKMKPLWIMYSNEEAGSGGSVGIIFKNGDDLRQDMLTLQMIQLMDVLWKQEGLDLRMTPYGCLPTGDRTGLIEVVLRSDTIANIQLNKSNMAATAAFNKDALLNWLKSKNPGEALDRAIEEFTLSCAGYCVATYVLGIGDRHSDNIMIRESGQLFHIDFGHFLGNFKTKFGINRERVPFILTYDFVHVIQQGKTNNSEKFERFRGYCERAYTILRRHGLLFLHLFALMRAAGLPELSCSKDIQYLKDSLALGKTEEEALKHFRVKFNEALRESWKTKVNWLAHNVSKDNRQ
T2 sequence (P27986 whole entry partner): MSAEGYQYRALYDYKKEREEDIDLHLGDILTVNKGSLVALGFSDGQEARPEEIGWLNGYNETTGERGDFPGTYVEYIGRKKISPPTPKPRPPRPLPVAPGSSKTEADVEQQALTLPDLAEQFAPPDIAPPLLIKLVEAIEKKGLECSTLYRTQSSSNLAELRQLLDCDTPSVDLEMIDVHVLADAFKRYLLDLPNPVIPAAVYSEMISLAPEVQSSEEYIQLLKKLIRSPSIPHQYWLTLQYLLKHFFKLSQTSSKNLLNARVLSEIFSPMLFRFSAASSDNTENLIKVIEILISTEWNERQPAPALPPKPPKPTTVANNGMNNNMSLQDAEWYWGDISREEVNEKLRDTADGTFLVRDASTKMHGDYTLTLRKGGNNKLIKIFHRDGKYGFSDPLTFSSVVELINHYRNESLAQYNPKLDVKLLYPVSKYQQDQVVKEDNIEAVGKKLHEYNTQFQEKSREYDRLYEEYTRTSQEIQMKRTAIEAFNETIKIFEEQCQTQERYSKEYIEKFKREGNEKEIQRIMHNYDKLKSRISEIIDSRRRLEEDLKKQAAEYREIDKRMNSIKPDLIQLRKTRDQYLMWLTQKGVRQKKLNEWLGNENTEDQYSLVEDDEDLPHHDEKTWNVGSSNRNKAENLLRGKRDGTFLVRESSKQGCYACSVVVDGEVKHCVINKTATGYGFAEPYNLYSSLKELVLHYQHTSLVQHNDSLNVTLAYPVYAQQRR
Procedure: Study on the inhibitory activity of the compounds of present invention to PI 3κα, PI3κδ and PI3κγ.
(§1) PI 3-Kinase (human) HTRF™ Assay kit (Cat.33-017, Millipore)
For example, 10 μL DTT is added into 500 μL 4× Reaction Buffer, and water is added to 1.5 mL.
The Test compounds are dissolved with DMSO to 1 mM as storage liquid. 2 μL of each of storage liquid is added into 48 μL ddH2O, to obtain the 40 μM compounds solution containing 4% DMSO. After mixing, 3 μL of each of the solution is added into 27 μL 4% DMSO (in ddH2O) to obtain the 4 μM compounds solution. […]
The screening concentration of PI 3k δ kinase: 2 ng/well,
(§2) Kinase is diluted with 2×PIP2 operating fluid, the concentration of kinase operating fluid is 2 times of screening concentration.
The concentration of ATP is 100 μM in 20 μL kinase reaction system.
(§3) Stop A and Stop B are mixed according to the proportion of 3:1, and are placed for 2 hours at room temperature to obtain the stop solution available.
(§4) DM C, DM A and DM B are mixed according to the proportion of 18:1:1, and are placed for 2 hours at room temperature to obtain the detection solution available.

[3] = target: T3, PI3 K γ (Homo sapiens, UniProt P48736); assay: Inhibitory activity to PI3K γ, PI 3-Kinase (human) HTRF Assay kit; conditions: read-out: Inhibition rate % to PI3 K γ
T3 construct: purchased Biology, Medicilon
T3 sequence (P48736 whole entry): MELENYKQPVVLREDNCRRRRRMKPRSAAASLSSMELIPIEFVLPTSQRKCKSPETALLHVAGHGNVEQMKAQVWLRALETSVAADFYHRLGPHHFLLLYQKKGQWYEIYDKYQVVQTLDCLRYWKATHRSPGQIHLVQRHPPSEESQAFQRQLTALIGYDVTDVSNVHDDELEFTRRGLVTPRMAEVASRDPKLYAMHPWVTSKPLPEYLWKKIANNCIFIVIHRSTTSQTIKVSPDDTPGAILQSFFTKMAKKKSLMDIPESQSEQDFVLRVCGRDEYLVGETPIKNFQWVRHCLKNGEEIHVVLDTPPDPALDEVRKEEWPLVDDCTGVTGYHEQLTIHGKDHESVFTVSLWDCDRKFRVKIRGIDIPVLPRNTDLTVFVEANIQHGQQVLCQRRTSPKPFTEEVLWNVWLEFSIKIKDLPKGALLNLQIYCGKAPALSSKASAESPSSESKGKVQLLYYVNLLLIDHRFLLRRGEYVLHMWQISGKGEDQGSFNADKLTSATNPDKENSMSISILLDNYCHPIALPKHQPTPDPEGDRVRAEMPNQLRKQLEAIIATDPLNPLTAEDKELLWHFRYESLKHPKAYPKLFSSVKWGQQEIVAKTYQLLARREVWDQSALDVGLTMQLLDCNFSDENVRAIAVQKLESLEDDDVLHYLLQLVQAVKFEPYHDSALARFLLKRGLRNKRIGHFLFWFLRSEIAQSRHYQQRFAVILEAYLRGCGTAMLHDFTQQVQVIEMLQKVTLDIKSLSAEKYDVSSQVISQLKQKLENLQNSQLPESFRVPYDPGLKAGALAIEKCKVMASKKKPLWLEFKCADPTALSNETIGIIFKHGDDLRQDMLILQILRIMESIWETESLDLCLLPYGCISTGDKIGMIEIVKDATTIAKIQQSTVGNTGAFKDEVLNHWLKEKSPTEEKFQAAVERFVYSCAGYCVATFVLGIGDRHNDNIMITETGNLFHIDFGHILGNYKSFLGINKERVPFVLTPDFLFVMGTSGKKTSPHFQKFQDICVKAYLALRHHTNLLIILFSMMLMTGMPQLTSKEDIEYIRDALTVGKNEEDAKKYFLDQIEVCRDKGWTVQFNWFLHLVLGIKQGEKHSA
From the text: Study on the inhibitory activity of the compounds of present invention to PI 3κα, PI3κδ and PI3κγ. Two or three concentrations of the compounds are selected to preliminary screening to calculate respectively the activity inhibition rate of the compounds of corresponding concentrations to enzyme, then the compounds with better activity are selected by preliminary screening for IC50 test.
as §1
PI 3k γ (Biology, Medicilon)
4× Reaction Buffer (Cat.33-002, Millipore) is diluted with ddH2O to 1.33×, and 1M DTT is added to make the final concentration as 6.67 mM. For example, 10 μL DTT is added into 500 μL 4× Reaction Buffer, and water is added to 1.5 mL.
The Test compounds are dissolved with DMSO to 1 mM as storage liquid. 2 μL of each of storage liquid is added into 48 μL ddH2O, to obtain the 40 μM compounds solution containing 4% DMSO. After mixing, 3 μL of each of the solution is added into 27 μL 4% DMSO (in ddH2O) to obtain the 4 μM compounds solution. 5 μL of each dilute solution is added into 384-well plates, then the final concentration of the compounds in the 20 μL final kinase reaction system is 10 μM and 1 μM respectively contained 1% DMSO. The dilution methods of compounds are similar to the preliminary screening in IC50 test.
2×PIP2 working fluid is prepared with 1.33× reaction buffer to the final concentration of 20 μM.
The screening concentration of PI 3k γ kinase: 80 ng/well,
as §2
10 mM ATP is diluted with 1.33× reaction buffer to 400 μM. The concentration of ATP is 100 μM in 20 μL kinase reaction system.
as §3, §4

[4] = read-out: Inhibition rate % to PI3Kδ
[5] = 10 μM (Table 7), read-out: Inhibition rate % to PI3Kδ
[6] = read-out: Inhibition rate % to PI3K delta
[7] = 10 μM (Table 8), read-out: Inhibition rate % to PI3K delta

SMILES	inhibition at 1 µM ([1]; 1 μM)	inhibition at 10 µM [1]	inhibition at 1 µM [2, 4]	inhibition at 10 µM [2, 5]	inhibition at 1 µM [3]	inhibition at 10 µM [3]	inhibition at 0.4 µM [2, 6]	inhibition at 2 µM [2, 6]	inhibition at 10 µM [2, 7]	inhibition at 1 µM [1]
COC(=O)C1(Nc2nc(Nc3ccc4nccc(-c5ccccc5)c4c3)nc3[nH]cnc23)CC1 [MED1007-15, 1-(2-(4-phenylquinoline-6-ylamino)-9H-purine-6-ylamino)cyclopropane carboxylic acid methyl ester]	31.2%	93.5%	1.25%	8.64%	10.4%	19.1%				
COC(=O)c1ccc(-c2ccnc3ccc(Nc4nc(NC5CC5)c5nc[nH]c5n4)cc23)cc1 [MED1007-59, 4-(6-(6-(cyclopropylamino)-9H-purine-2-ylamino)quinoline-4-yl) p-methyl benzoate]	4.39%	0.93%	18%	59%	0.83%	4.97%				
COC(=O)c1cccc(-c2ccnc3ccc(Nc4nc(NC5CC5)c5nc[nH]c5n4)cc23)c1 [MED1007-60, 4-(6-(6-(cyclopropylamino)-9H-purine-2-ylamino)quinoline-4-yl) m-methyl benzoate]	-0.63%	10.6%	-2.33%	34.1%	-2.59%	4.45%				
COc1cccc(-c2ccnc3ccc(Nc4nc(NC5CC5)c5nc[nH]c5n4)cc23)c1 [MED1007-61, N6-cyclopropyl-N2-(4-(3-methoxyphenyl)quinoline-6-yl)-9H-purine-2,6-diamine]	4.72%	55%	16.7%	102%	-8.18%	20.4%				
c1ccc(-c2ccnc3ccc(Nc4nc(N5CCOCC5)c5nc[nH]c5n4)cc23)cc1 [MED1007-109, N-(6-morpholine-9H-purine-2-yl)-4-phenyl quinoline-6-amine]							22.6%	44%	91.6%	
Oc1nc(Nc2ccc3nccc(-c4ccccc4)c3c2)nc2[nH]cnc12 [MED1007-110, 2-(4-phenylquinoline-6-ylamino)-9H-purine-6-ol]							6.26%	2.94%	12.6%	
CCc1ccnc2ccc(Nc3nc(NC4CC4)c4nc[nH]c4n3)cc12 [MED1007-114, N6-cyclopropyl-N2-(4-ethylquinoline-6-yl)-9H-purine-2,6 diamine dihydrate di-methanesulfonate]							28.4%	49.1%	78.9%	
COc1ccc(-c2ccnc3ccc(Nc4nc(O)c5nc[nH]c5n4)cc23)cc1 [MED1007-132, 2-(4-(4-methoxy-phenyl)quinoline-6-ylamino)-9H-purine-6-ol-methanesulfonate]							-0.76%	8.54%	55%	
Oc1nc(Nc2ccc3nccc(-c4ccc5c(c4)OCO5)c3c2)nc2[nH]cnc12 [MED1007-139, 2-(4-(benzo[1,3]-dioxole-5-yl)quinoline-6-ylamino)-9H-purine-6-ol-methanesulfonate]							4.29%	15%	20.1%	
CN[C@@H]1C[C@H]2O[C@@](C)([C@@H]1OC)n1c3ccccc3c3c4c(c5c6ccccc6n2c5c31)C(=O)NC4 [Staurosporine, reference compound]										99.8%

Further lines, with some results ahead:

inhibition at 1 µM ([1]; 1 μM)	inhibition at 10 µM [1]	inhibition at 1 µM [2, 4]	inhibition at 10 µM [2, 5]	inhibition at 1 µM [3]	inhibition at 10 µM [3]	inhibition at 0.4 µM [2, 6]	inhibition at 2 µM [2, 6]	inhibition at 10 µM [2, 7]	SMILES	inhibition at 1 µM [1]
9.16%	24.5%	31%	42.1%	-13.7%	4.28%				c1cc(N2CCOCC2)c2cc(Nc3nc(NC4CC4)c4nc[nH]c4n3)ccc2n1 [MED1007-32, N6-cyclopropyl-N2-(4-morpholinequinoline-6-yl)-9H-purine-2,6-diamine]	
4.71%	25.6%	21.4%	63%	21%	20%				c1cc(N2CCNCC2)c2cc(Nc3nc(NC4CC4)c4nc[nH]c4n3)ccc2n1 [MED1007-33, N6-cyclopropyl-N2-(4-(piperazine-1-yl)quinoline-6-yl)-9H-purine-2,6-diamine]	
53.8%	98.8%	40.2%	69.8%	24.4%	57.3%				CC(C)Oc1nc(Nc2ccc3ncccc3c2)nc2[nH]cnc12 [MED1007-34, N-(6-isopropoxy-9H-purine-2-yl) quinoline-6-amine]	
7.3%	43.7%	13.3%	42.4%	-6.81%	-4.67%				c1ccc(Oc2nc(Nc3ccc4nccc(N5CCNCC5)c4c3)nc3[nH]cnc23)cc1 [MED1007-54, N-(6-phenoxy-9H-purine-2-yl)-4-(piperazine-1-yl) quinoline-6-amine]	
3.93%	29.5%	2.11%	35%	-0.29%	-0.98%				CC(C)Oc1nc(Nc2ccc3nccc(N4CCNCC4)c3c2)nc2[nH]cnc12 [MED1007-58, N-(6-isopropoxy-9H-purine-2-yl)-4-(piperazine-1-yl) quinoline-6-amine]	
						30%	37.7%	68.9%	Cc1ccnc2ccc(Nc3nc(NC4CC4)c4nc[nH]c4n3)cc12 [MED1007-113, N6-cyclopropyl-N2-(4-methylquinoline-6-yl)-9H-purine-2,6-diamine dihydrate di-methanesulfonate]	
						20.8%	69%	83.4%	CC(C)Oc1nc(Nc2ccc3nccc(-c4ccc5c(c4)OCO5)c3c2)nc2[nH]cnc12 [MED1007-133, 4-(benzo[1,3]-dioxole-5-yl)-N-(6-isopropoxy-9H-purine-2-yl) quinoline-6-amine-methanesulfonate]	
						27.2%	59.6%	83.4%	CC(C)Oc1nc(Nc2ccc3nccc(-c4cccc(F)c4)c3c2)nc2[nH]cnc12 [MED1007-135, 4-(3-fluorophenyl)-N-(6-isopropoxy-9H-purine-2-yl) quinoline-6-amine-methanesulfonate]	
						15.7%	44.8%	80.5%	CC(C)Oc1nc(Nc2ccc3nccc(-c4ccc(F)cc4)c3c2)nc2[nH]cnc12 [MED1007-136, 4-(4-fluorophenyl)-N-(6-isopropoxy-9H-purine-2-yl) quinoline-6-amine-methanesulfonate]	
						27.6%	63.3%	99.1%	COc1ccc(-c2ccnc3ccc(Nc4nc(OC(C)C)c5nc[nH]c5n4)cc23)cc1OC [MED1007-137, 4-(3,4-dimethoxyphenyl)-N-(6-isopropoxy-9H-purine-2-yl) quinoline-6-amine-methanesulfonate]	
